{
  "source": "patent US7560439B2",
  "about": "“Method for increasing the gene expression of transfected genes” (Sigma-Tau Industrie Farmaceutiche Riunite S.p.A., priority 2000, dated 2009)",
  "key": {"[1]": {"system": "luciferase expression from transfected pRL-CMV plasmid in HeLa cells", "experiment": "Luciferase assay in HeLa cells transiently transfected with pRL-CMV plasmid", "type": "cell-based", "settings": "for RLU/mg mean: HeLa 100000/12-well plates, 1.5 μg/well", "experimental": "Cell cultures. The uterine cervical carcinoma cell line HeLa, ATCC was used. The cells were cultured in RPMI 1640 Medium (eurobio), containing antibiotics and 10% foetal calf serum.\nTreatment with acetyl-L-carnitine (ALC). 4×10^6 and 5×10^6 cells cultured in a medium containing ALC at final concentrations of 5 mM and 10 mM, respectively, were seeded in two 125 cm^3 flasks, whereas 2×10^6 cells not treated with ALC were plated in a 75 cm^3 flask. The treatment was repeated after 48 h (coinciding with the seeding of the cells for transfection) and after 72 h (at the end of transfection) and was also repeated after 120 h only in the case of samples transfected for lysis at 72 h.\nTransient transfection of pRL-CMV plasmid. The cells were seeded for transfection 24 h before in 12-well plates (Corning), in amounts corresponding to 10^5 cells per well. The transfection was carried out in triplicate for each sample using the liposome DOTAP (Boehringer-Mannheim, Indianapolis, Ind.) and the plasmid pRL-CMV (Promega cat. N° E2261). In brief, 1.5 μg/well of DNA and 9.2 μM/well of liposome were used per sample, considering a final volume of 1050 μl/sample; the transfection mixture (25 μl /sample) was left at ambient temperature for 30 min and then HBS 2× (20 mM HEPES, 150 mM NaCl, pH 7.4) was added in amounts of 25 μl/ sample, and 50 μl/sample of the solution thus obtained was added to the cells for 5 hours. After carrying out three washings with PBS (phosphate buffer pH 7.4) without calcium and magnesium, the cells were cultured in growth medium containing ALC at the concentrations indicated in the treatments up to the time of cell lysis for the luciferase assay. As a control, naked DNA was added in a 1× HBS solution.\nThe cells were washed with PBS (phosphate buffer pH 7.4) without calcium and magnesium and subjected to lysis by means of the addition of 200 μl of lysis buffer contained in the GeneLux L002-100 kit (Wallac) used for the luciferase assay. After 20 min, total proteins were collected and 10 μl of each sample were assayed for luciferase, following the procedures indicated in the kit; the assay was carried out in 96-multiwell plates using the Victor^2 luminometer (Wallac). The luminescence readings obtained, expressed in relative light units (RLU), were normalised for mg of total proteins, calculated using the Bradford Method."}, "[2]": {"system": "transfected intracellular plasmidic DNA (pRL-CMV) in HeLa cells", "experiment": "Slot blot quantification of transfected intracellular plasmidic DNA", "type": "cell-based", "experimental": "To verify if the positive effect of ALC on luciferase activity was related to an activation of transcriptional machinery or to an increasing of cell permeability, we decided to quantify the total amount of transfected intracellular plasmidic DNA by Slot blot analysis.\nCell culture. Cervical carcinoma cell line HeLa (ATCC) were maintained in RPMI medium (Europio) supplemented with 10% foetal calf serum, 1% P/S in a humidified atmosphere with 5% CO2 ALC treatment 5×10^6 cells were plated in a 125-cm^3 flask and maintained in RPMI, supplemented as described above, containing ALC at two concentrations (5 mM and 10 mM) 4 days before transfection. The treatment was repeated at the end of transfection. Untreated cells were cultured in the same condition and used as control.\nTransient Expression of pRL-CMV. 10^5 cells/well were plated 1 day before transfection in 12 multiwells plate (Corning). DOTAP liposome (Boehringer-Mannheim, Indianapolis, Ind.) and pRL-CMV plasmid (Promega cat. N° E2261) were used for transfection, 6 wells/sample. Briefly, 1.5 μg/well of DNA and a water solution of liposome at 9.2 μM were mixed at room temperature (25 μl/sample) to form DNA-liposome complex. After incubation for 30 min, the same volume/well of HBS 2× (20 mM HEPES, 150 mM NaCl, pH 7.4) was added and the transfection mixture was aliquotated (50 μl/well in supplemented medium). The cells were incubated with the complex for 5 h and the complex removed by washing with PBS (phosphate-buffered saline, pH 7.4, Ca^++ and Mg^++ free). Cells were maintained in supplemented medium, containing ALC, for 24h and then used for analysis. Nude DNA in HBS 1× (pRL-CMV) was transfected as control.\nDNA extraction. Total cellular DNA was extracted by alkaline lysis from transfected cells according to the method reported by Maniatis. After washing with PBS, cells were collected with PBS (1 ml/well) and centrifuged at 1500×g for 10 min at r.t.\nAccording to protocol, each pellet, placed on ice, was lysed using: 100 μl of solution I [50 mM glucose, 25 mM Tris-HCl (pH=8), 10 mM EDTA (pH=8)], 200 μl of solution II [0.2 N NaOH, 1% SDS], 150 μl of solution III (5M potassium acetate, glacial acetic acid]. After centrifugation at 12000×g for 5 min at 4° C., surnatant was collected and DNA was precipitated with EtOH. Pellet was resuspended in TE 1× (50 μl/sample).\nProbe labelling. The probe, the luciferase gene, was obtained by digestion of pRL-CMV with HindIII for 2 h at 37° C. and then with BamHI in the same condition. After digestion, the mixture was electrophoresed on 0.8% agarose gel in TAE 1× buffer (40 mM Tris-HCl (pH 7.8), 1.1 mM EDTA and 37 mM sodium acetate) and the fragment corresponding to luciferase gene was isolated by excision. The labelling of luciferase gene was performed using the Rediprime II DNA labelling system (Amersham Pharmacia biotech, cat n. RPN 1633) and Redivue stabilised [α-^32P]dCTP (Amersham Pharmacia biotech, cat n. AA 0005) according to purchased protocol.\nSlot Blot. DNA samples were absorbed on positively charged Nylon membrane (Boehringer, cat. n. 1209299) using Biorad Slot Blot apparatus. The DNA was linked to the filter by U.V. Stratalinker-2400 (Stratagene). After pre-incubation of the filter with QuikHyb Hybridization Solution (Stratagene, cat. n. 201220) for 20 min at 68° C., 2.5×10^6 cpm/ml of labelled probe was added, after boiling, with salmon sperm DNA, for 2 min. The hybridization was performed at 68° C. for 1 h, and then the filter was washed twice with buffer I (SSC 2×, SDS 0.1%) for 15 min at room temperature and then with buffer II (SSC 0.1×, SDS 0.1%) for 30 min at 60° C. The filter was exposed to “Phosphor Imager” box and then analysed by densitometry using a IPlab Gel software."}, "[3]": {"settings": "Dotap/DNA complex + ALC 5 mM, slots 19-24"}, "[4]": {"settings": "Dotap/DNA complex + ALC 10 mM, slots 31-36"}, "[5]": {"settings": "nude DNA + ALC 5 mM, slots 13-18"}},
  "note": "Where “and” joins values, the source holds several entries; their conditions need not be identical. Identical values can stand only once.",
  "data": [
    {"smiles": "CC(=O)O[C@H](CC(=O)[O-])C[N+](C)(C)C", "note": "[ALC, acetyl L-carnitine]", "values": [
      {"measurement": "RLU/mg mean", "setting": "[1]; 5 mM ALC + ETS (no Dotap)", "result": "17,025 RLU/mg"},
      {"measurement": "RLU/mg mean", "setting": "[1]; 5 mM ALC + LUC (no Dotap)", "result": "18,060 RLU/mg"},
      {"measurement": "RLU/mg mean", "setting": "[1]; 5 mM ALC + dota + LUC", "result": "779,340 RLU/mg"},
      {"measurement": "RLU/mg mean", "setting": "[1]; 5 mM ALC + dotap + ETS", "result": "22,411 RLU/mg"},
      {"measurement": "increase of mean RLU per mg of total proteins as compared to untreated samples", "setting": "[1]; 5 mM ALC, lysates at 24 h", "result": "approximately 1.6 fold"},
      {"measurement": "RLU/mg mean", "setting": "[1]; 10 mM ALC + ETS (no Dotap)", "result": "17,724 RLU/mg"},
      {"measurement": "RLU/mg mean", "setting": "[1]; 10 mM ALC + LUC (no Dotap)", "result": "20,481 RLU/mg"},
      {"measurement": "RLU/mg mean", "setting": "[1]; 10 mM ALC + dotap + ETS", "result": "20,520 RLU/mg"},
      {"measurement": "RLU/mg mean", "setting": "[1]; 10 mM ALC + dotap + LUC", "result": "750,034 RLU/mg"},
      {"measurement": "luciferase expression compared with 5 mM ALC", "setting": "[1]; 10 mM ALC, lysates at 24 h", "result": "no additional increase"},
      {"measurement": "RLUs per mg of proteins, treated vs untreated samples", "setting": "[1]; lysates at 48 h after transfection", "result": "no significant differences"},
      {"measurement": "luciferase expression", "setting": "[1]; lysates at 72 h", "result": "no luciferase expression"},
      {"measurement": "Slot blot densitometry vs untreated", "setting": "[2]; 10 mM ALC", "result": "little decrease"},
      {"measurement": "Slot blot densitometry, transfected cells in presence vs absence of ALC", "setting": "[2]; 24 h after transfection", "result": "no difference"},
      {"measurement": "densitometric volume, mean", "setting": "[2]; [3]", "result": 240634.5, "unit": "relative units"},
      {"measurement": "densitometric volume, single values", "setting": "[2]; [3]", "result": "222013 relative units and 255756 relative units and 253422 relative units and 234654 relative units and 239053 relative units and 238909 relative units"},
      {"measurement": "densitometric volume, mean", "setting": "[2]; [4]", "result": 165345, "unit": "relative units"},
      {"measurement": "densitometric volume, single values", "setting": "[2]; [4]", "result": "173870 relative units and 225644 relative units and 116848 relative units and 114911 relative units and 157762 relative units and 203035 relative units"},
      {"measurement": "densitometric volume, mean", "setting": "[2]; Nude DNA + ALC 10 mM, slots 25-30", "result": 52595.2, "unit": "relative units"},
      {"measurement": "densitometric volume, mean", "setting": "[2]; [5]", "result": 61441.5, "unit": "relative units"},
      {"measurement": "densitometric volume, single values", "setting": "[2]; [5]", "result": "59846 relative units and 58324 relative units and 61431 relative units and 70373 relative units and 63045 relative units and 55630 relative units"}
    ]}
  ]
}
